{"source": "patent US20110195979A1", "about": "“COMPOUNDS FOR THE TREATMENT AND PREVENTION OF INFLUENZA” (priority 2010, published 2011)", "key": {"Influenza H1N1 virus": {"test_system": "Influenza H1N1 virus", "assay": "Viral cytopathic effect (CPE) assay", "format": "cell-based, Influenza A (H1N1)", "protocol": "Cells and viruses. Madin-Darby canine kidney cell (MDCK) was purchased from American type culture collection (ATCC) and was maintained in minimal essential medium (MEM) containing 10% fetal bovine serum and antibiotics. Influenza A/Weiss/43 (H1N1), A/PR/8/34 (H1N1), and A/Hongkong/8/68 (H3N2) were purchased from ATCC and propagated in 10-day-old embryonated chicken eggs at 37° C. Virus was harvested 48 h after inoculation as pooled allantoic fluid. After a brief centrifugation (3,000 rpm at room temperature for 20 min) and virus titer measurement by a hemagglutination test, virus was aliquoted and stored at a −80° C. freezer.\nViral cytopathic effect (CPE) assay: To measure anti-influenza activity of compounds, MDCK cells were seeded into 96-well plates at a density of 5,000 cells per well. Next day, compounds were serially half-log diluted with Gibco SFM containing trypsin. Compounds and 50 pfu of virus were added into corresponding wells to make m.o.i at 0.01 and a final trypsin concentration of 2.5 μg/ml. The testing plates also contained medium control, cell control, virus control, and compound toxicity control. After a 3-day treatment, cell viability was measured with a MTT (3-(4,5-dimethylthiazol-2-yl)-2,5-diphenyltetrazolium bromide) method. Briefly, 20 μl of MTT diluted in culture medium was added into each wells and incubated at 37° C. for 4 hours. Reduced MTT (formazan) was extracted with acidic isopropanol and absorbance at wavelengths of 570 nm and 630 nm (OD570 and OD630) was read on a microtiter plate reader. After subtraction of background OD values, dose response curves of half-log concentration vs. percent protection were generated, on which half maximal effective concentration (EC50) and half maximal toxic concentration (CC50) were calculated."}, "MDCK cells [1]": {"test_system": "MDCK cells", "assay": "Cytotoxicity to MDCK cells (compound toxicity control, MTT)", "conditions": "for IC50: read-out: Cytotoxicy IC50, half maximal cytotoxicity concentration to MDCK cells, MTT; for IC50 at 3 day: dog"}, "MDCK cells [2]": {"test_system": "MDCK cells", "conditions": "dog, 3 day"}, "H1 and H2 viruses": {"test_system": "H1 and H2 viruses", "conditions": "cited from earlier work"}, "H3 viruses": {"test_system": "H3 viruses", "conditions": "cited from earlier work"}, "MDCK cells [3]": {"test_system": "MDCK cells", "assay": "in vitro", "conditions": "dog, Cytotoxicy IC50"}, "H3 influenza viruses": {"test_system": "H3 influenza viruses", "conditions": "cited from earlier work"}, "[4]": {"conditions": "H1N1; MDCK cells, m.o.i 0.01, 3-day treatment, MTT OD; mean of triplicate experiments; read-out: CPE_EC50"}, "[5]": {"conditions": "Influenza A virus, H1N1, MDCK, 72 h, read-out: CPE_EC50"}}, "note": "Read-outs that look alike come from different tables or passages of the source."}
{"molecule": "CC1(C)C[C@@H](O)C[C@@](C)(CNc2cc(Cl)cc(C#N)c2)C1", "note": "(relative stereo) [Example IIa-23, 3-Chloro-5-[((cis-1,5)-5-hydroxy-1,3,3-trimethyl-cyclohexylmethyl)-amino]-benzonitrile]", "values": [{"measurement": "EC50", "setting": "Influenza H1N1 virus; [4]", "result": 34, "unit": "nM"}, {"measurement": "IC50", "setting": "MDCK cells [1]", "result": 13.9, "unit": "µM"}]}
{"molecule": "CC1(C)CC(O)CC(CNc2cc(F)cc(C(F)(F)F)c2)C1", "note": "(single isomer, unassigned) [Example IIi-1/2 Isomer 1, (cis-1,5)-5-[(3-Fluoro-5-trifluoromethyl-phenylamino)-methyl]-3,3-dimethyl-cyclohexanol]", "values": [{"measurement": "EC50", "setting": "Influenza H1N1 virus; [5]", "result": "< 310", "unit": "nM"}, {"measurement": "IC50", "setting": "MDCK cells [2]", "result": 8.16, "unit": "µM"}]}
{"molecule": "CC1(C)CC(O)CC(CNc2cc(F)cc(C(F)(F)F)c2)C1", "note": "(single isomer, unassigned) [Example IIi-1/2 Isomer 2, (trans-1,5)-5-[(3-fluoro-5-trifluoromethyl-phenylamino)-methyl]-3,3-dimethyl-cyclohexanol]", "values": [{"measurement": "EC50", "setting": "Influenza H1N1 virus; read-out: CPE_EC50; H1N1; MDCK cells, m.o.i 0.01, 3-day treatment, MTT OD; mean of triplicate experiments", "result": "< 310", "unit": "nM"}, {"measurement": "IC50", "setting": "MDCK cells [2]", "result": 16.8, "unit": "µM"}]}
{"molecule": "C[C@@H]1CCC[C@@H]2C[C@@H](NC(=O)c3cc(Cl)c(N)cc3O)CCN21", "note": "[BMY 27709]", "values": [{"measurement": "EC50", "setting": "H1 and H2 viruses; read-out: anti-flu activity EC50", "result": "6 to 8", "unit": "µM"}, {"measurement": "activity against H3 viruses", "setting": "H3 viruses", "result": "not H3 viruses"}]}
{"molecule": "CC1(C)CC(O)CC(C)(CNc2ccc(C#N)c(Cl)c2)C1", "note": "(stereo not drawn) [Example IIa-29, 2-Chloro-4-[((cis-1,5)-5-hydroxy-1,3,3-trimethyl-cyclohexylmethyl)-amino]-benzonitrile]", "values": [{"measurement": "EC50", "setting": "Influenza H1N1 virus; [5]", "result": 180, "unit": "nM"}, {"measurement": "IC50 at 3 day", "setting": "MDCK cells [1]", "result": 8.22, "unit": "µM"}]}
{"molecule": "CC1(C)CC(O)CC(C)(CNc2ccc(Cl)c(C#N)c2)C1", "note": "(stereo not drawn) [Example IIa-30, 2-Chloro-5-[((cis-1,5)-5-hydroxy-1,3,3-trimethyl-cyclohexylmethyl)-amino]-benzonitrile]", "values": [{"measurement": "EC50", "setting": "Influenza H1N1 virus; [5]", "result": 140, "unit": "nM"}, {"measurement": "IC50 at 3 day", "setting": "MDCK cells [1]", "result": 7.99, "unit": "µM"}]}
{"molecule": "CC1(C)CC(O)CC(C)(CNc2ccc(C#N)c(C(F)(F)F)c2)C1", "note": "(stereo not drawn) [Example IIa-33, 4-[((cis-1,5)-5-Hydroxy-1,3,3-trimethyl-cyclohexylmethyl)-amino]-2-trifluoromethyl-benzonitrile]", "values": [{"measurement": "EC50", "setting": "Influenza H1N1 virus; [5]", "result": 49, "unit": "nM"}, {"measurement": "IC50 at 3 day", "setting": "MDCK cells [1]", "result": 8.35, "unit": "µM"}]}
{"molecule": "CC1(C)CC(O)CC(C)(C(=O)Nc2cc(F)cc(F)c2)C1", "note": "(stereo not drawn) [Example IVa-11, (cis-1,5)-5-Hydroxy-1,3,3-trimethyl-cyclohexanecarboxylic acid(3,5-difluoro-phenyl)-amide]", "values": [{"measurement": "EC50", "setting": "Influenza H1N1 virus; [5]", "result": 320, "unit": "nM"}, {"measurement": "IC50 at 3 day", "setting": "MDCK cells [3]", "result": "> 100", "unit": "µM"}]}
{"molecule": "CC1(C)CC(O)CC(C)(C(=O)Nc2cc(F)cc(Cl)c2)C1", "note": "(stereo not drawn) [Example IVa-12, (cis-1,5)-5-Hydroxy-1,3,3-trimethyl-cyclohexanecarboxylic acid(3-chloro-5-fluoro-phenyl)amide]", "values": [{"measurement": "EC50", "setting": "Influenza H1N1 virus; [5]", "result": 55, "unit": "nM"}, {"measurement": "IC50 at 3 day", "setting": "MDCK cells [3]", "result": 56.4, "unit": "µM"}]}
{"molecule": "CC1(C)CC(O)CC(C)(C(=O)Nc2cc(F)cc(C(F)(F)F)c2)C1", "note": "(stereo not drawn) [Example IVa-13, (cis-1,5)-5-Hydroxy-1,3,3-trimethyl-cyclohexanecarboxylic acid(3-fluoro-5-trifluoromethyl-phenyl)-amide]", "values": [{"measurement": "EC50", "setting": "Influenza H1N1 virus; [5]", "result": 54, "unit": "nM"}, {"measurement": "IC50 at 3 day", "setting": "MDCK cells [3]", "result": 52.8, "unit": "µM"}]}
{"molecule": "CC1(C)CC(O)CC(C)(C(=O)Nc2cc(Cl)cc(C(F)(F)F)c2)C1", "note": "(stereo not drawn) [Example IVa-14, (cis-1,5)-5-Hydroxy-1,3,3-trimethyl-cyclohexanecarboxylic acid(3-chloro-5-trifluoromethyl-phenyl)-amide]", "values": [{"measurement": "EC50", "setting": "Influenza H1N1 virus; [5]", "result": 19, "unit": "nM"}, {"measurement": "IC50 at 3 day", "setting": "MDCK cells [3]", "result": 22.2, "unit": "µM"}]}
{"molecule": "CC1(C)CC(O)CC(C)(C(=O)Nc2cc(Br)cc(C(F)(F)F)c2)C1", "note": "(stereo not drawn) [Example IVa-15, (cis-1,5)-5-Hydroxy-1,3,3-trimethyl-cyclohexanecarboxylic acid(3-bromo-5-trifluoromethyl-phenyl)-amide]", "values": [{"measurement": "EC50", "setting": "Influenza H1N1 virus; [5]", "result": 55, "unit": "nM"}, {"measurement": "IC50 at 3 day", "setting": "MDCK cells [3]", "result": 7.31, "unit": "µM"}]}
{"molecule": "COc1cc(NC(=O)C2(C)CC(O)CC(C)(C)C2)cc(C(F)(F)F)c1", "note": "(stereo not drawn) [Example IVa-16, (cis-1,5)-5-Hydroxy-1,3,3-trimethyl-cyclohexanecarboxylic acid(3-methoxy-5-trifluoromethyl-phenyl)-amide]", "values": [{"measurement": "EC50", "setting": "Influenza H1N1 virus; [5]", "result": 60, "unit": "nM"}, {"measurement": "IC50 at 3 day", "setting": "MDCK cells [3]", "result": 74.8, "unit": "µM"}]}
{"molecule": "CC1(C)CC(O)CC(C)(C(=O)Nc2cc(Cl)cc(Cl)c2)C1", "note": "(stereo not drawn) [Example IVa-17, (cis-1,5)-5-Hydroxy-1,3,3-trimethyl-cyclohexanecarboxylic acid(3,5-dichloro-phenyl)-amide]", "values": [{"measurement": "EC50", "setting": "Influenza H1N1 virus; [5]", "result": 49, "unit": "nM"}, {"measurement": "IC50 at 3 day", "setting": "MDCK cells [3]", "result": 23.2, "unit": "µM"}]}
{"molecule": "CC1(C)CC(O)CC(C)(C(=O)Nc2ccc(Cl)c(F)c2)C1", "note": "(stereo not drawn) [Example IVa-19, (cis-1,5)-5-Hydroxy-1,3,3-trimethyl-cyclohexanecarboxylic acid(4-chloro-3-fluoro-phenyl)amide]", "values": [{"measurement": "EC50", "setting": "Influenza H1N1 virus; [5]", "result": 1800, "unit": "nM"}, {"measurement": "IC50 at 3 day", "setting": "MDCK cells [3]", "result": 30.9, "unit": "µM"}]}
{"molecule": "CC1(C)CC(O)CC(C)(C(=O)Nc2ccc(Cl)c(Cl)c2)C1", "note": "(stereo not drawn) [Example IVa-20, (cis-1,5)-5-Hydroxy-1,3,3-trimethyl-cyclohexanecarboxylic acid(3,4-dichloro-phenyl)-amide]", "values": [{"measurement": "EC50", "setting": "Influenza H1N1 virus; [5]", "result": 627, "unit": "nM"}, {"measurement": "IC50 at 3 day", "setting": "MDCK cells [3]", "result": 9.63, "unit": "µM"}]}
{"molecule": "CC1(C)CC(O)CC(C)(C(=O)Nc2ccc(F)c(C(F)(F)F)c2)C1", "note": "(stereo not drawn) [Example IVa-21, (cis-1,5)-5-Hydroxy-1,3,3-trimethyl-cyclohexanecarboxylic acid(4-fluoro-3-trifluoromethyl-phenyl)-amide]", "values": [{"measurement": "EC50", "setting": "Influenza H1N1 virus; [5]", "result": 454, "unit": "nM"}, {"measurement": "IC50 at 3 day", "setting": "MDCK cells [3]", "result": 29.6, "unit": "µM"}]}
{"molecule": "CC(=O)NC1CC(C)(C)CC(C)(C(=O)Nc2cccc(Cl)c2)C1", "note": "(stereo not drawn) [Example IVb-2, (cis-1,5)-5-Acetylamino-1,3,3-trimethyl-cyclohexanecarboxylic acid(3-chloro-phenyl)-amide]", "values": [{"measurement": "EC50", "setting": "Influenza H1N1 virus; [5]", "result": 4610, "unit": "nM"}, {"measurement": "IC50 at 3 day", "setting": "MDCK cells [3]", "result": "> 100", "unit": "µM"}]}
{"molecule": "CC(=O)N(C(C)=O)C1CC(C)(C)CC(C)(C(=O)Nc2cccc(Cl)c2)C1", "note": "(stereo not drawn) [Example IVb-3, (cis-1,5)-Diacetylamino-1,3,3-trimethyl-cyclohexanecarboxylic acid(3-chloro-phenyl)-amide]", "values": [{"measurement": "EC50", "setting": "Influenza H1N1 virus; [5]", "result": 3150, "unit": "nM"}, {"measurement": "IC50 at 3 day", "setting": "MDCK cells [3]", "result": 22.9, "unit": "µM"}]}
{"molecule": "CC1(C)CC(NS(C)(=O)=O)CC(C)(C(=O)Nc2cccc(Cl)c2)C1", "note": "(stereo not drawn) [Example IVb-4, (cis-1,5)-5-Methanesulfonylamino-1,3,3-trimethyl-cyclohexanecarboxylic acid(3-chloro-phenyl)-amide]", "values": [{"measurement": "EC50", "setting": "Influenza H1N1 virus; [5]", "result": 2770, "unit": "nM"}, {"measurement": "IC50 at 3 day", "setting": "MDCK cells [3]", "result": "> 100", "unit": "µM"}]}
{"molecule": "CC(C)(C)c1cc(O)ccc1O", "note": "[TBHQ, tert-butyl hydroquinone]", "values": [{"measurement": "inhibition of fusion", "setting": "H3 influenza viruses", "result": "inhibits fusion"}]}
{"molecule": "C[C@H]1CC[C@H]2C(C)(C)[C@@H](O)CC[C@]23Oc2c(c(O)cc4c2CNC4=O)C[C@]13C", "note": "[stachyflin]", "values": [{"measurement": "block of influenza virus replication", "setting": "H1 and H2 viruses", "result": "blocked"}, {"measurement": "activity against H3 viruses", "setting": "H3 viruses", "result": "not H3 viruses"}]}
{"molecule": "(cis-1,5)-5-Hydroxy-1,3,3-trimethyl-cyclohexanecarboxylic acid(4-chloro-3-trifluoromethyl-phenyl)-amide [Example IVa-22]", "values": [{"measurement": "EC50", "setting": "Influenza H1N1 virus; [4]", "result": 165, "unit": "nM"}, {"measurement": "IC50", "setting": "MDCK cells [1]", "result": 7.49, "unit": "µM"}]}
